Values quoted from earlier work as cited in patent US6458386B1, “Medicaments based on polymers composed of methacrylamide-modified gelatin” (Innogenetics N.V., priority 1997, dated 2002).

What was measured:
large cutaneous burns = details: children
chronic pressure ulcers = details: humans
[1] = test system: full thickness macular holes; details: human eyes

Q: For Human Growth Hormone: hormone, which “wound healing of large cutaneous burns” value (large cutaneous burns) is on record?
A: The value was “accelerate wound healing”.

Q: Which “wound healing of chronic pressure ulcers” value (chronic pressure ulcers) does the source give for Platelet Derived Growth Factor here?
A: Its value is “wound healing stimulator”.

Q: With Transforming Growth Factor-β as the substance, how does the “effect in treatment of full thickness macular holes” value [1] read?
A: The value was “beneficial effects”.
